Earlier results on one compound are cited in patent US20170128362A1, “APPLICATION OF LARGE-DOSE GLYCERINUM IN FREEZE-THAWING TOLERABLE LIPID EMULSION” (Shengyang Pharmaceutical University, priority 2014, published 2017).

Molecules are shown by their SMILES.

For this series the following is noted: 0.005% sodium oleate.

As to `CCCCCCCC/C=C\CCCCCCCC(=O)[O-].[Na+]` [sodium oleate], the hemolysis is listed as 100%.
